The values below come from patent US12527880B2, “Cyanine-based telodendrimers and uses for treating cancer” (priority 2018, dated 2026).

A value given as a limit tells only on which side of the number the result lay.

A word on the cell viability: it is the share of living cells, or the viability signal relative to a control. Low readings indicate more harm to the cells, high ones less harm to the cells. For orientation: AUC means concentration integrated over time. Read a low AUC as low exposure. The term half-life denotes the time needed for the level to fall by half in the phase considered. Low readings indicate fast loss, high ones slow loss.

Data set [1] is described as follows: In vivo blood elimination kinetics. Further details: species or system female Sprague-Dawley rats.
Source text: In vivo blood elimination kinetics. The jugular vein of female Sprague-Dawley rats was implanted with catheter for blood collection (Harland, Indianapolis, IN, USA). […] All of the blood samples were collected from the catheter at different time point. Micro-plate reader (SpectraMax M2) was used to measure the ICG concentration at absorbance at 808 nm.
Where [2] appears, read: female, Sprague-Dawley, rat, blood, iv, 5 mg kg^−1, rats.

Procedure for OSC-3 oral cancer cells: The in vitro cell cytotoxicity, cellular uptake study and combination therapy of samples were assessed on human OSC-3 oral cancer cell line, which was purchased from American type culture collection (ATCC). The cells were cultured with DMEM supplemented with 10% FBS and 1% Penicillin at 37° C. in humidified atmosphere with 5% CO2 for 24 h. Then the samples were added to each well and the cells were incubated at 37° C. for an additional 24 h. After the incubation, the relative cell viabilities were measured by the MTS assay. […] For in vitro chemo-/photothermal combination therapy, OSC-3 cells were seeded into 96-well plates (n=3) and incubated with different samples for 4 h, followed by exposure to an 808 nm NIR laser (0.8 W cm^2, 2 min). Thereafter, the cells were incubated for another 24 h at 37° C. and MTS reagent was added into each well. The relative cell viabilities were then measured by MTS assay. Percentage of cell viability represents drug effect, and 100% means all cells survived. Cell viability was calculated using the following equation: Cell viability (%)=(OD490 nm of treatment/OD490 nm of blank control)×100%. For in vitro cells apoptosis experiment, OSC-3 cells were co-cultured with different samples (DOX concentration: 25 μg mL^−1 and 808 nm NIR laser (0.8 W cm^2, 2 min), if applied) for 8 h. Cells were washed two times and replaced with fresh medium.

Turning to `COc1cccc2c1C(=O)c1c(O)c3c(c(O)c1C2=O)C[C@@](O)(C(=O)CO)C[C@@H]3O[C@H]1C[C@H](N)[C@H](O)[C@H](C)O1` [free DOX, doxorubicin], the cell viability in the data set on OSC-3 oral cancer cells stood at 61%.

For `CC1(C)C(/C=C/C=C/C=C/C=C2\N(CCCCS(=O)(=O)O)c3ccc4ccccc4c3C2(C)C)=[N+](CCCCS(=O)(=O)[O-])c2ccc3ccccc3c21` [free ICG, indocyanine green], the “time to clearance from circulation” value in data set [1] (after intravenous administration) is recorded as not above 30 min. For the same compound, in data set [1] (setting [2]), the exposure (AUC) was 12100 ng·h/mL and the half-life was 5.22 min.
